PubChem BioAssay (NCI)
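Growth conditions: 96-well plates. Treatment: test compound, 48 hours, 5 concentrations. Analysis: linear interpolation between bracketing concentrations; unreached endpoints set to highest concentration. TGI marks complete inhibition of growth.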

What was measured:
Test in all cases: inhibition of tumour cell growth, NCI panel, 48 h
[1] = tested on: HCT-116 colon
[2] = tested on: SK-MEL-28 melanoma
[3] = tested on: SNB-75 CNS
[4] = tested on: SNB-78 CNS
[5] = tested on: NCI-H460 lung
[6] = tested on: A549 NSCLC
[7] = tested on: DMS 114 small cell lung
[8] = tested on: SK-MEL-5 melanoma
[9] = tested on: RPMI-8226 leukemia
[10] = tested on: A498 renal
[11] = tested on: HCT-15 colon
[12] = tested on: NCI-H226 lung
[13] = tested on: RXF-631 renal
[14] = tested on: RXF 393 renal
[15] = tested on: HOP-62 NSCLC
[16] = tested on: UO-31 renal
[17] = tested on: HCC-2998 colon
[18] = tested on: COLO 205 colon
[19] = tested on: SW-620 colon
[20] = tested on: HT29 colon
[21] = tested on: PC-3 prostate
[22] = tested on: UACC-62 melanoma
[23] = tested on: NCI-H23 lung
[24] = tested on: NCI-H522 lung
[25] = tested on: SR leukemia
[26] = tested on: SF-539 CNS
[27] = tested on: LXFL 529 NSCLC
[28] = tested on: M14 melanoma
[29] = tested on: MALME-3M melanoma
[30] = tested on: U251 CNS
[31] = tested on: KM20L2 colon
[32] = tested on: T-47D breast
[33] = tested on: ACHN renal
[34] = tested on: EKVX NSCLC
[35] = tested on: TK-10 renal
[36] = tested on: SN12C renal
[37] = tested on: XF 498 CNS
[38] = tested on: K-562 leukemia
[39] = tested on: DU-145 prostate
[40] = tested on: SF-268 CNS
[41] = tested on: MDA-N
[42] = tested on: SF-295 CNS
[43] = tested on: HS 578T breast
[44] = tested on: NCI/ADR-RES ovarian
[45] = tested on: DLD-1 colon
[46] = tested on: OVCAR-5 ovarian
[47] = tested on: SNB-19 CNS
[48] = tested on: LOX IMVI melanoma
[49] = tested on: UACC-257 melanoma
[50] = tested on: 786-0 renal
[51] = tested on: OVCAR-4 ovarian
[52] = tested on: MDA-MB-231 breast
[53] = tested on: MCF7 breast
[54] = tested on: SK-MEL-2 melanoma
[55] = tested on: KM12 colon
[56] = tested on: OVCAR-3 ovarian
[57] = tested on: HL-60(TB) leukemia
[58] = tested on: MOLT-4 leukemia
[59] = tested on: BT-549 breast
[60] = tested on: DMS 273 small cell lung
[61] = tested on: CAKI-1 renal
[62] = tested on: M19-MEL melanoma
[63] = tested on: OVCAR-8 ovarian
[64] = tested on: IGROV1 ovarian
[65] = tested on: HOP-92 NSCLC
[66] = tested on: CCRF-CEM leukemia
[67] = tested on: SK-OV-3 ovarian
[68] = tested on: MDA-MB-435
[69] = tested on: HOP-18 NSCLC

How did the TGI [1] turn out when `C=C(c1nc2ccc(Cl)cc2[nH]c1=O)C(O)c1ccc(C(O)C(=O)c2nc3ccc(Cl)cc3[nH]c2=O)cc1` (configuration not stated) was run?
The TGI was > 100 µM.

What about the TGI [2] of the same compound?
Its TGI is > 100 µM.

What about the TGI [3] of the same compound?
The TGI was > 100 µM.

What about the TGI [4] of the same compound?
The TGI was > 100 µM.

And the TGI [5]?
Its TGI is > 100 µM.

And the TGI [6]?
The TGI was > 100 µM.

What about the TGI [7] of the same compound?
The TGI was > 100 µM.

What about the TGI [8] of the same compound?
Its TGI is > 100 µM.

What about the TGI [9] of the same compound?
The TGI was > 100 µM.

What about the TGI [10] of the same compound?
The TGI was > 100 µM.

And the TGI [11]?
The TGI was > 100 µM.

What about the TGI [12] of the same compound?
Its TGI is > 100 µM.

And the TGI [13]?
The TGI was > 100 µM.

What about the TGI [14] of the same compound?
Its TGI is > 100 µM.

What about the TGI [15] of the same compound?
The TGI was > 100 µM.

What about the TGI [16] of the same compound?
The TGI was > 100 µM.

What about the TGI [17] of the same compound?
The TGI was > 100 µM.

What about the TGI [18] of the same compound?
Its TGI is > 100 µM.

And the TGI [19]?
Its TGI is > 100 µM.

And the TGI [20]?
The TGI was > 100 µM.

And the TGI [21]?
Its TGI is > 100 µM.

And the TGI [22]?
The TGI was > 100 µM.

And the TGI [23]?
Its TGI is > 100 µM.

What about the TGI [24] of the same compound?
Its TGI is > 100 µM.

And the TGI [25]?
The TGI was > 100 µM.

What about the TGI [26] of the same compound?
Its TGI is > 100 µM.

And the TGI [27]?
Its TGI is > 100 µM.

And the TGI [28]?
Its TGI is > 100 µM.

And the TGI [29]?
Its TGI is > 100 µM.

What about the TGI [30] of the same compound?
Its TGI is > 100 µM.

What about the TGI [31] of the same compound?
The TGI was > 100 µM.

What about the TGI [32] of the same compound?
Its TGI is > 100 µM.

What about the TGI [33] of the same compound?
The TGI was > 100 µM.

What about the TGI [34] of the same compound?
The TGI was > 100 µM.

And the TGI [35]?
Its TGI is > 100 µM.

And the TGI [36]?
Its TGI is > 100 µM.

What about the TGI [37] of the same compound?
The TGI was > 100 µM.

And the TGI [38]?
Its TGI is > 100 µM.

What about the TGI [39] of the same compound?
Its TGI is > 100 µM.

What about the TGI [40] of the same compound?
Its TGI is > 100 µM.

And the TGI [41]?
The TGI was > 100 µM.

And the TGI [42]?
The TGI was > 100 µM.

What about the TGI [43] of the same compound?
The TGI was > 100 µM.

And the TGI [44]?
The TGI was > 100 µM.

And the TGI [45]?
Its TGI is > 100 µM.

What about the TGI [46] of the same compound?
The TGI was > 100 µM.

What about the TGI [47] of the same compound?
Its TGI is > 100 µM.

And the TGI [48]?
The TGI was > 100 µM.

What about the TGI [49] of the same compound?
Its TGI is > 100 µM.

And the TGI [50]?
Its TGI is > 100 µM.

What about the TGI [51] of the same compound?
The TGI was > 100 µM.

And the TGI [52]?
The TGI was > 100 µM.

And the TGI [53]?
The TGI was > 100 µM.

What about the TGI [54] of the same compound?
Its TGI is > 100 µM.

What about the TGI [55] of the same compound?
Its TGI is > 100 µM.

What about the TGI [56] of the same compound?
Its TGI is > 100 µM.

And the TGI [57]?
The TGI was 41.8 µM.

And the TGI [58]?
Its TGI is > 100 µM.

And the TGI [59]?
The TGI was > 100 µM.

What about the TGI [60] of the same compound?
The TGI was > 100 µM.

What about the TGI [61] of the same compound?
Its TGI is > 100 µM.

What about the TGI [62] of the same compound?
The TGI was > 100 µM.

And the TGI [63]?
The TGI was > 100 µM.

What about the TGI [64] of the same compound?
The TGI was > 100 µM.

What about the TGI [65] of the same compound?
The TGI was > 100 µM.

And the TGI [66]?
The TGI was > 100 µM.

And the TGI [67]?
Its TGI is > 100 µM.

What about the TGI [68] of the same compound?
Its TGI is > 100 µM.

Which results are given for `O=c1[nH]c(=O)n(C2OC(CO)C(O)C2O)cc1NN=NCc1ccccc1` (configuration not stated)?
TGI [1]: > 80.1 µM; TGI [2]: > 100 µM; TGI [3]: > 100 µM; TGI [4]: > 100 µM; TGI [5]: > 100 µM; TGI [6]: > 100 µM; TGI [7]: 99.1 µM; TGI [8]: > 100 µM; TGI [9]: > 76.2 µM; TGI [10]: > 100 µM; TGI [11]: > 100 µM; TGI [12]: > 100 µM; TGI [13]: > 100 µM; TGI [14]: > 100 µM; TGI [15]: > 100 µM; TGI [16]: > 100 µM; TGI [17]: > 100 µM; TGI [18]: > 100 µM; TGI [19]: > 67.8 µM; TGI [20]: > 100 µM; TGI [22]: > 100 µM; TGI [23]: > 100 µM; TGI [24]: > 100 µM; TGI [25]: > 100 µM; TGI [26]: > 100 µM; TGI [27]: > 100 µM; TGI [28]: > 100 µM; TGI [29]: > 100 µM; TGI [30]: > 100 µM; TGI [31]: > 100 µM; TGI [33]: > 100 µM; TGI [34]: > 100 µM; TGI [35]: > 100 µM; TGI [36]: > 100 µM; TGI [37]: > 100 µM; TGI [38]: > 100 µM; TGI [40]: > 100 µM; TGI [42]: > 100 µM; TGI [45]: > 77.4 µM; TGI [69]: > 100 µM; TGI [46]: > 100 µM; TGI [47]: > 100 µM; TGI [48]: > 100 µM; TGI [49]: > 100 µM; TGI [50]: > 100 µM; TGI [51]: > 100 µM; TGI [54]: > 100 µM; TGI [55]: > 100 µM; TGI [56]: > 100 µM; TGI [57]: > 96.8 µM; TGI [58]: > 100 µM; TGI [60]: > 100 µM; TGI [61]: > 100 µM; TGI [62]: > 100 µM; TGI [63]: > 100 µM; TGI [64]: > 100 µM; TGI [65]: > 100 µM; TGI [66]: > 100 µM; TGI [67]: > 100 µM
